Data taken from ChEMBL document CHEMBL1909576, “Continued exploration of biphenylsulfonamide scaffold as a platform for aggrecanase-1 inhibition” (Bioorg Med Chem Lett, 2011).
≈ marks a conversion by molar mass, not a printed value.

Experiments:
[1] = Clearance in Sprague-Dawley rat; format: ADME, organism-based; conditions: in vivo
[2] = Half life in Sprague-Dawley rat; format: ADME, organism-based; conditions: in vivo
[3] = Bioavailability in Sprague-Dawley rat; format: ADME, organism-based; conditions: in vivo
Collagenase 3 = Collagenase 3 (Homo sapiens, UniProt P45452); assay: Inhibition of MMP13
[4] = target: T1, A disintegrin and metalloproteinase with thrombospondin motifs 4 (Homo sapiens, UniProt O75173); assay: Inhibition of aggrecanase-1
T1 sequence (O75173 whole entry): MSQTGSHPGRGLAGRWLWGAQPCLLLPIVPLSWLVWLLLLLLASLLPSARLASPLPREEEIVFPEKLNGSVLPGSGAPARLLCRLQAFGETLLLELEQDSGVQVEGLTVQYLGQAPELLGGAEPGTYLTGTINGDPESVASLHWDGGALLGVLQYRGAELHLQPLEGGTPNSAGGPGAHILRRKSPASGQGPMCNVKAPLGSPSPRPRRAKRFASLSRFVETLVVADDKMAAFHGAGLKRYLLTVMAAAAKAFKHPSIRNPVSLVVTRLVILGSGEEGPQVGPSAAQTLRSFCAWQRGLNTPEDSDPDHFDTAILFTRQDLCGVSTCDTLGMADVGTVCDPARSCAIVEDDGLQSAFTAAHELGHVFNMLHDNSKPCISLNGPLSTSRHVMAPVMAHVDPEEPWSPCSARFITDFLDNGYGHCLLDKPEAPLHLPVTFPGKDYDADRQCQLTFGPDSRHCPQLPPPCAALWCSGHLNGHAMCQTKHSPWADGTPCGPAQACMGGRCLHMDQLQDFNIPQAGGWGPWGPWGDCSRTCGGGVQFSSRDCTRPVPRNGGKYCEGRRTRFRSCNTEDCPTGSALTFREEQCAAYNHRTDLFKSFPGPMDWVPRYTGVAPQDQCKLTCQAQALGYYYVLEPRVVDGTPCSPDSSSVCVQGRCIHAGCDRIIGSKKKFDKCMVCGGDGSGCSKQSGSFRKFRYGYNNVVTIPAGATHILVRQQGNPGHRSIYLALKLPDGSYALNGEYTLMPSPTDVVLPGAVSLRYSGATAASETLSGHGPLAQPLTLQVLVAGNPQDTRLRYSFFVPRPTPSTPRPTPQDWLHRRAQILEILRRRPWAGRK

[5] = Solubility of the compound at pH 7.4; format: physicochemical; conditions: buffer
[6] = Permeability across human Caco2 cells; format: ADME, cell-based; conditions: Caco-2, read-out: permeability

SMILES	clearance [1] [mL/min/kg]	half-life [2] [h]	bioavailability [3] [%]	IC50 (Collagenase 3) [nM]	IC50 [4] [nM]	solubility [5] [µg/mL]	Papp [6] [×10⁻⁶ cm/s]
CC(C)[C@@H](NS(=O)(=O)c1ccc(-c2ccc(OCc3ccccc3C#N)cc2)cc1)C(=O)O	1.07	6	23	4.6	15000	> 100	–
CC(C)[C@@H](NS(=O)(=O)c1ccc(-c2ccc(OCc3cccc(C#N)c3)cc2)cc1)C(=O)O	–	7	–	0.1	800	53 (≈ 114 µM)	0.8
